Each structure is given as a SMILES string.

Among the data in patent US10329289B2, “6,7-dihydro-5H-pyrrolo[3,4-B]pyridin-5-one allosteric modulators of the M4 muscarinic acetylcholine receptor” (Merck Sharp & Dohme Corp., priority 2015, dated 2019) are EC50 values, retold here.

This assay concerns the target T1, human M4 muscarinic acetylcholine receptor (Homo sapiens, UniProt P08173).
T1 construct: expressed in transfected cells; host or cells: CHO-K1
T1 sequence (P08173 1-479): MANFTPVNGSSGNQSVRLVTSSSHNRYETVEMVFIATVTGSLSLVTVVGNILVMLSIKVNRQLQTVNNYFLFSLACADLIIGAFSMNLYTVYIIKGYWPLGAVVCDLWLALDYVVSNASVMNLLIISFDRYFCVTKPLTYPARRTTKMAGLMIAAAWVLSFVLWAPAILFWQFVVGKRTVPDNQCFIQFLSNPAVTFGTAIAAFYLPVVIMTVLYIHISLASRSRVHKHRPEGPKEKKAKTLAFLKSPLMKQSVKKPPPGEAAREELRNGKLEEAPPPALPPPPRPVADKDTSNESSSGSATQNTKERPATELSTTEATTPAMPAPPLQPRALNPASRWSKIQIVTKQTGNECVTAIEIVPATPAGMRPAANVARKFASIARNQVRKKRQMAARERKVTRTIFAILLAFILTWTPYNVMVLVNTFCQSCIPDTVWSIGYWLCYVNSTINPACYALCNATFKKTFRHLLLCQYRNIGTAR
Put plainly: human FLIPR-based M4 PAM assay (Ca2+ mobilization, CHO-K1 cells with human M4 receptor and Gαqi5). The format is cell-based. The settings on record: acetylcholine at 20% of maximum response, read-out: M4 PAM IP. The procedure, abridged:
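Calcium-mobilization (FLIPR) readout in dye-loaded CHO-K1 cells co-expressing human M4 receptor and Gαqi5. Potentiation measured against acetylcholine at a concentration giving 20% of maximal response, with an optional 70% addition; the reported value is the curve inflection point from a 4-parameter logistic fit.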
(In general: A change in cytosolic calcium serves as a functional read-out for many receptors and channels.)
Take `CCc1cc2c(nc1N1CCC(Oc3ccc4c(c3)OCC4)CC1)CN(CCO)C2=O` [Example 265A, 2-(4-((2,3-dihydrobenzofuran-6-yl)oxy)piperidin-1-yl)-3-ethyl-6-(2-hydroxyethyl)-6,7-dihydro-5H-pyrrolo[3,4-b]pyridin-5-one]: the EC50 amounted to 100 nM.

As for `Cc1c(N2CCC(OC[C@@]3(C)CC3(F)F)CC2)nc2c(c1C)C(=O)N(CCO)C2` [Example 265B, (R)-2-(4-((2,2-difluoro-1-methylcyclopropyl)methoxy)piperidin-1-yl)-6-(2-hydroxyethyl)-3,4-dimethyl-6,7-dihydro-5H-pyrrolo[3,4-b]pyridin-5-one], the EC50 came to 123 nM. `Cc1c(N2CCC(OC[C@]3(C)CC3(F)F)CC2)nc2c(c1C)C(=O)N(CCO)C2` [Example 265C, (S)-2-(4-((2,2-difluoro-1-methylcyclopropyl)methoxy)piperidin-1-yl)-6-(2-hydroxyethyl)-3,4-dimethyl-6,7-dihydro-5H-pyrrolo[3,4-b]pyridin-5-one]: the EC50 was 41 nM. With `Cc1c(N2CCC(Oc3ccc4c(cnn4C)c3)CC2)nc2c(c1C)C(=O)N(CCO)C2` [Example 265D, 6-(2-hydroxyethyl)-3,4-dimethyl-2-(4-((1-methyl-1H-indazol-5-yl)oxy)piperidin-1-yl)-6,7-dihydro-5H-pyrrolo[3,4-b]pyridin-5-one], the EC50 worked out at 65 nM. Regarding `Cc1c(N2CCC(Oc3ccc4c(c3)CCOC4)CC2)nc2c(c1C)C(=O)N(CCO)C2` [Example 265F, 6-(2-hydroxyethyl)-2-(4-(isochroman-6-yloxy)piperidin-1-yl)-3,4-dimethyl-6,7-dihydro-5H-pyrrolo[3,4-b]pyridin-5-one], the EC50 turned out to be 46 nM. `Cc1c(N2CCC(Oc3ccc(F)cc3)CC2)nc2c(c1C)C(=O)N(CCO)C2` [Example 266, 2-(4-(4-fluorophenoxy)piperidin-1-yl)-6-(2-hydroxyethyl)-3,4-dimethyl-6,7-dihydro-5H-pyrrolo[3,4-b]pyridin-5-one]: the EC50 amounted to 105 nM. For `Cc1c(N2CCC(Oc3ccc4c(c3)OCC4)CC2)nc2c(c1C)C(=O)N(CCO)C2` [Example 266A, 2-(4-((2,3-dihydrobenzofuran-6-yl)oxy)piperidin-1-yl)-6-(2-hydroxyethyl)-3,4-dimethyl-6,7-dihydro-5H-pyrrolo[3,4-b]pyridin-5-one] the value was 44 nM; for `Cc1c(N2CCC(Oc3ccc4c(c3)COC4)CC2)nc2c(c1C)C(=O)N(CC(=O)O)C2` [Example 266B, 2-(2-(4-((1,3-dihydro-2-benzofuran-5-yl)oxy)piperidin-1-yl)-3,4-dimethyl-5-oxo-5,7-dihydro-6H-pyrrolo[3,4-b]pyridin-6-yl)acetic acid], 53 nM; for `Cc1c(N2CCC(Oc3ccc4c(c3)COC4)CC2)nc2c(c1C)C(=O)N([C@H](C)CO)C2` [Example 266C, (R)-2-(4-((1,3-dihydro-2-benzofuran-5-yl)oxy)piperidin-1-yl)-6-(1-hydroxypropan-2-yl)-3,4-dimethyl-6,7-dihydro-5H-pyrrolo[3,4-b]pyridin-5-one], 64 nM.

In the case of `Cc1c(N2CCC(Oc3ccc4c(c3)COC4)CC2)nc2c(c1C)C(=O)N([C@@H](C)CO)C2` [Example 266D, (S)-2-(4-((1,3-dihydro-2-benzofuran-5-yl)oxy)piperidin-1-yl)-6-(1-hydroxypropan-2-yl)-3,4-dimethyl-6,7-dihydro-5H-pyrrolo[3,4-b]pyridin-5-one], the EC50 was found to be 43 nM.

As to `CCc1cc2c(nc1N1CC[C@H](OCC3(C)CC3)[C@@H](F)C1)CN(CCO)C2=O` [Example 266E, 3-ethyl-2-((3S,4S)-3-fluoro-4-((1-methylcyclopropyl)methoxy)piperidin-1-yl)-6-(2-hydroxyethyl)-6,7-dihydro-5H-pyrrolo[3,4-b]pyridin-5-one], the EC50 amounted to 159 nM. For `CCc1cc2c(nc1N1CCC(Oc3ccc4c(c3)CCOC4)CC1)CN(CCO)C2=O` [Example 266F, 3-ethyl-6-(2-hydroxyethyl)-2-(4-(isochroman-6-yloxy)piperidin-1-yl)-6,7-dihydro-5H-pyrrolo[3,4-b]pyridin-5-one], the EC50 stood at 57 nM. With `Cc1c(N2CC[C@H](OCC3(C)CC3)[C@@H](F)C2)nc2c(c1C)C(=O)N(CCO)C2` [Example 266G, 2-((3S,4S)-3-fluoro-4-((1-methylcyclopropyl)methoxy)piperidin-1-yl)-6-(2-hydroxyethyl)-3,4-dimethyl-6,7-dihydro-5H-pyrrolo[3,4-b]pyridin-5-one], the EC50 came to 69 nM. For `Cc1c(N2CCC(OCC3(C)CC3)CC2)nc2c(c1C)C(=O)N(CCO)C2` [Example 267, 6-(2-hydroxyethyl)-3,4-dimethyl-2-(4-((1-methylcyclopropyl)methoxy)piperidin-1-yl)-6,7-dihydro-5H-pyrrolo[3,4-b]pyridin-5-one] the value was 34 nM. For `CCc1cc2c(nc1N1CCC(Oc3ccc4c(c3)COCC4)CC1)CN(CCO)C2=O` [Example 267A, 3-ethyl-6-(2-hydroxyethyl)-2-(4-(isochroman-7-yloxy)piperidin-1-yl)-6,7-dihydro-5H-pyrrolo[3,4-b]pyridin-5-one] the value was 102 nM; for `Cc1c(N2CCC(OCC3CCC3)CC2)nc2c(c1C)C(=O)N(CCO)C2` [Example 267B, 2-(4-(cyclobutylmethoxy)piperidin-1-yl)-6-(2-hydroxyethyl)-3,4-dimethyl-6,7-dihydro-5H-pyrrolo[3,4-b]pyridin-5-one], 80 nM; for `CO[C@@H]1Cc2ccc(OC3CCN(c4nc5c(c(C)c4C)C(=O)N(CCO)C5)CC3)cc2C1` [Example 267C, (R)-6-(2-hydroxyethyl)-2-(4-((2-methoxy-2,3-dihydro-1H-inden-5-yl)oxy)piperidin-1-yl)-3,4-dimethyl-6,7-dihydro-5H-pyrrolo[3,4-b]pyridin-5-one], 109 nM.

For `CO[C@H]1Cc2ccc(OC3CCN(c4nc5c(c(C)c4C)C(=O)N(CCO)C5)CC3)cc2C1` [Example 267D, (S)-6-(2-hydroxyethyl)-2-(4-((2-methoxy-2,3-dihydro-1H-inden-5-yl)oxy)piperidin-1-yl)-3,4-dimethyl-6,7-dihydro-5H-pyrrolo[3,4-b]pyridin-5-one], the EC50 stood at 87 nM.

In the case of `Cc1cc2c(nc1N1CC[C@@H](Oc3ccc4c(cnn4C)c3)[C@@H](F)C1)CN(CCO)C2=O` [Example 267E, 2-((3S,4R)-3-fluoro-4-((1-methyl-1H-indazol-5-yl)oxy)piperidin-1-yl)-6-(2-hydroxyethyl)-3-methyl-6,7-dihydro-5H-pyrrolo[3,4-b]pyridin-5-one], the EC50 worked out at 69 nM. For `Cc1c(N2CC[C@@H](OCC3(C)CC3)[C@H](F)C2)nc2c(c1C)C(=O)N(CCO)C2` [Example 267F, 2-((3R,4R)-3-fluoro-4-((1-methylcyclopropyl)methoxy)piperidin-1-yl)-6-(2-hydroxyethyl)-3,4-dimethyl-6,7-dihydro-5H-pyrrolo[3,4-b]pyridin-5-one] the value was 17 nM; for `CCc1cc2c(nc1N1CCC(OCC3(C)CC3)CC1)CN(CCO)C2=O` [Example 268, 3-ethyl-6-(2-hydroxyethyl)-2-(4-((1-methylcyclopropyl)methoxy)piperidin-1-yl)-6,7-dihydro-5H-pyrrolo[3,4-b]pyridin-5-one], 87 nM.

As to `CCc1cc2c(nc1N1CCC(Oc3ccc4cnn(C)c4c3)CC1)CN(CCO)C2=O` [Example 268A, 3-ethyl-6-(2-hydroxyethyl)-2-(4-((1-methyl-1H-indazol-6-yl)oxy)piperidin-1-yl)-6,7-dihydro-5H-pyrrolo[3,4-b]pyridin-5-one], the EC50 is 169 nM. Then `Cc1c(N2CCC(Oc3ccc4c(c3)COCC4)CC2)nc2c(c1C)C(=O)N(CCO)C2` [Example 268B, 6-(2-hydroxyethyl)-2-(4-(isochroman-7-yloxy)piperidin-1-yl)-3,4-dimethyl-6,7-dihydro-5H-pyrrolo[3,4-b]pyridin-5-one], with 63 nM.

With `Cc1cc2c(nc1N1CCC(Oc3ccc4c(c3)COC4)CC1)CN([C@H](C)CO)C2=O` [Example 268C, (R)-2-(4-((1,3-dihydro-2-benzofuran-5-yl)oxy)piperidin-1-yl)-6-(1-hydroxypropan-2-yl)-3-methyl-6,7-dihydro-5H-pyrrolo[3,4-b]pyridin-5-one], the EC50 came out at 53 nM. As to `Cc1cc2c(nc1N1CCC(Oc3ccc4c(c3)COC4)CC1)CN([C@@H](C)CO)C2=O` [Example 268D, (S)-2-(4-((1,3-dihydro-2-benzofuran-5-yl)oxy)piperidin-1-yl)-6-(1-hydroxypropan-2-yl)-3-methyl-6,7-dihydro-5H-pyrrolo[3,4-b]pyridin-5-one], the EC50 was 28 nM. For `Cc1c(N2CC[C@@H](Oc3ccc4c(cnn4C)c3)[C@@H](F)C2)nc2c(c1C)C(=O)N(CCO)C2` [Example 268E, 2-((3S,4R)-3-fluoro-4-((1-methyl-1H-indazol-5-yl)oxy)piperidin-1-yl)-6-(2-hydroxyethyl)-3,4-dimethyl-6,7-dihydro-5H-pyrrolo[3,4-b]pyridin-5-one] the value was 68 nM. With `Cc1c(N2CC[C@@H](OCC3(C)CC3)[C@@H](F)C2)nc2c(c1C)C(=O)N(CCO)C2` [Example 268F, 2-((3S,4R)-3-fluoro-4-((1-methylcyclopropyl)methoxy)piperidin-1-yl)-6-(2-hydroxyethyl)-3,4-dimethyl-6,7-dihydro-5H-pyrrolo[3,4-b]pyridin-5-one], the EC50 turned out to be 39 nM.
